Where two headings read alike, the source gives them in different places.
How the values were obtained:
[1] = system: patients with type 2 diabetes mellitus, chronic kidney disease, and risks for cardiovascular disease; assay type: in vivo
Procedure: A multicenter, double-blind clinical trial (SCORED) was conducted in which patients with type 2 diabetes mellitus (glycated hemoglobin level, ≥7%), chronic kidney disease (estimated glomerular filtration rate, 25 to 60 ml per minute per 1.73 m^2 of body-surface area), and risks for cardiovascular disease were randomly assigned in a 1:1 ratio to receive sotagliflozin or placebo. The primary end point was changed during the trial to the composite of the total number of deaths from cardiovascular causes, hospitalizations for heart failure, and urgent visits for heart failure.
Randomization was stratified according to criteria for heart failure (ejection fraction of ≤40% documented within the past year or hospitalization for heart failure during the previous 2 years) and geographic region (North America, Latin America, western Europe, eastern Europe, or rest of the world).
Persons 18 years of age or older with type 2 diabetes mellitus with a glycated hemoglobin level of 7% or higher, chronic kidney disease (eGFR, 25 to 60 ml per minute per 1.73 m^2 of body-surface area), and additional cardiovascular risk factors were enrolled. The risk factors consisted of at least one major cardiovascular risk factor in those 18 years of age or older or at least two minor cardiovascular risk factors in those 55 years of age or older. One exclusion criterion was any plan to start an SGLT2 inhibitor during the trial. Written informed consent was obtained from all the patients.
The original coprimary end points, assessed in time-to-event analyses, were the first occurrence of a major adverse cardiovascular event (MACE, defined as death from cardiovascular causes, non-fatal myocardial infarction, or nonfatal stroke) and the first occurrence of death from cardiovascular causes or hospitalization for heart failure (HHF). The primary end point was the total number of deaths from cardiovascular causes, hospitalizations for heart failure, and urgent visits for heart failure (UVHF).
The secondary end points were the total number of hospitalizations for heart failure and urgent visits for heart failure; deaths from cardiovascular causes; the total number of deaths from cardiovascular causes, hospitalizations for heart failure, nonfatal myocardial infarctions, and nonfatal strokes; the total number of deaths from cardiovascular causes, hospitalizations for heart failure, urgent visits for heart failure, and events of heart failure during hospitalization; the first occurrence of the composite of a sustained decrease of at least 50% in the eGFR from baseline for at least 30 days, long-term dialysis, renal trans-plantation, or a sustained eGFR of less than 15 ml per minute per 1.73 m^2 for at least 30 days; deaths from any cause; and the total number of deaths from cardiovascular causes, nonfatal myocardial infarctions, and nonfatal strokes. The use of total events allowed for a single patient to have more than one event contributing to the analysis. Subgroup analyses were prespecified.
All efficacy analyses followed the intention-to-treat principle. To allow for analyses of total events, competing-risk marginal models for recurrent events that were stratified according to heart-failure criteria and geographic region, with deaths not included in a given end point treated as competing terminal events, were applied to generate hazard ratios with Wald 95% confidence intervals and P values. Proportionality was confirmed by interaction terms between trial-group assignment and the logarithm of time. Event rates were summarized by the number of events per 100 patient-years of follow-up, and accrual of events over time was summarized by cumulative incidence functions.
Total events of myocardial infarction and total events of stroke were evaluated post hoc. Testing for differences between the two groups in adverse events was performed post hoc; P values were obtained from Pearson chi-square tests. […]

[2] = system: patients with reported LVH and no reported hypertension; assay type: in vivo
[3] = SCORED overall, sotagliflozin vs placebo
[4] = SCORED overall, sotagliflozin vs placebo, listed as sotagliflozin
[5] = reported LVH and no reported hypertension, N = 217
[6] = reported LVH and no reported hypertension, sotagliflozin vs placebo

Question: Which results are given for CCOc1ccc(Cc2cc([C@@H]3O[C@H](SC)[C@@H](O)[C@H](O)[C@H]3O)ccc2Cl)cc1 [Sotagliflozin, (2S,3R,4R,5S,6R)-2-(4-chloro-3-(4-ethoxybenzyl)phenyl)-6-(methylthio) tetrahydro-2H-pyran-3,4,5-triol]?
Answer: total hospitalizations ([1]; SCORED overall): 1923; total patient-years spanned by hospitalizations ([1]; SCORED overall): 104 patient-years; Deaths from any cause, event rate ([1]; SCORED overall, N = 5292): 3.5 Events/100 patient-years; Deaths from any cause, number of events ([1]; SCORED overall, N = 5292): 246 number of events; Deaths from cardiovascular causes, event rate ([1]; SCORED overall, N = 5292): 2.2 Events/100 patient-years; Deaths from cardiovascular causes, number of events ([1]; SCORED overall, N = 5292): 155 number of events; First occurrence of a sustained decrease of ≥50% in the eGFR from baseline for ≥30 days, long-term dialysis, renal transplantation, or sustained eGFR of <15 ml/min/1.73 m^2 for ≥30 days, event rate ([1]; SCORED overall, N = 5292): 0.5 Events/100 patient-years; First occurrence of the composite renal end point (sustained ≥50% eGFR decrease, long-term dialysis, renal transplantation, or sustained eGFR <15), number of events ([1]; SCORED overall, N = 5292): 37 number of events; Primary end point: total no. of deaths from cardiovascular causes, hospitalizations for HF, and urgent visits for HF, event rate ([1]; SCORED overall, N = 5292): 5.6 Events/100 patient-years; Primary end point: total no. of deaths from cardiovascular causes, hospitalizations for HF, and urgent visits for HF, number of events ([1]; SCORED overall, N = 5292): 400 number of events; Total no. of deaths from cardiovascular causes, hospitalizations for HF, nonfatal myocardial infarctions, and nonfatal strokes, event rate ([1]; SCORED overall, N = 5292): 7.6 Events/100 patient-years; Total no. of deaths from cardiovascular causes, hospitalizations for HF, nonfatal myocardial infarctions, and nonfatal strokes, number of events ([1]; SCORED overall, N = 5292): 541 number of events; Total no. of deaths from cardiovascular causes, hospitalizations for HF, urgent visits for HF, and events of HF during hospitalization, event rate ([1]; SCORED overall, N = 5292): 6.4 Events/100 patient-years; Total no. of deaths from cardiovascular causes, hospitalizations for HF, urgent visits for HF, and events of HF during hospitalization, number of events ([1]; SCORED overall, N = 5292): 453 number of events; Total no. of deaths from cardiovascular causes, nonfatal myocardial infarctions, and nonfatal strokes, event rate ([1]; SCORED overall, N = 5292): 4.8 Events/100 patient-years; Total no. of deaths from cardiovascular causes, nonfatal myocardial infarctions, and nonfatal strokes, number of events ([1]; SCORED overall, N = 5292): 343 number of events; Total no. of hospitalizations for HF and urgent visits for HF, event rate ([1]; SCORED overall, N = 5292): 3.5 Events/100 patient-years; Total no. of hospitalizations for HF and urgent visits for HF, number of events ([1]; SCORED overall, N = 5292): 245 number of events; composite renal end point, compared with placebo ([1]; SCORED overall, in words): did not differ significantly; risk of the composite of deaths from cardiovascular causes, hospitalizations for heart failure, and urgent visits for heart failure, compared with placebo ([1]; SCORED overall, in words): lower risk; Deaths from any cause: Hazard Ratio (95% CI) [1, 3]: 0.99 (0.83-1.18); Deaths from cardiovascular causes: Hazard Ratio (95% CI) [1, 3]: 0.90 (0.73-1.12); First occurrence of the composite renal end point: Hazard Ratio (95% CI) [1, 3]: 0.71 (0.46-1.08); Original coprimary end point, first occurrence of death from cardiovascular causes or hospitalization for heart failure: hazard ratio [1, 3]: 0.77; Original coprimary end point, first occurrence of death from cardiovascular causes, nonfatal myocardial infarction, or nonfatal stroke: hazard ratio [1, 3]: 0.84; Primary end point: Hazard Ratio (95% CI) [1, 3]: 0.74 (0.63-0.88); Total no. of deaths from cardiovascular causes, hospitalizations for HF, nonfatal myocardial infarctions, and nonfatal strokes: Hazard Ratio (95% CI) [1, 3]: 0.72 (0.63-0.83); Total no. of deaths from cardiovascular causes, hospitalizations for HF, urgent visits for HF, and events of HF during hospitalization: Hazard Ratio (95% CI) [1, 3]: 0.76 (0.64-0.89); Total no. of deaths from cardiovascular causes, nonfatal myocardial infarctions, and nonfatal strokes: Hazard Ratio (95% CI) [1, 3]: 0.77 (0.65-0.91); Total no. of hospitalizations for HF and urgent visits for HF: Hazard Ratio (95% CI) [1, 3]: 0.67 (0.55-0.82); Deaths from cardiovascular causes: Hazard Ratio (95% CI) [1, 4]: 0.90; Primary end point: Hazard Ratio (95% CI) [1, 4]: 0.74; Total no. of hospitalizations for HF and urgent visits for HF: Hazard Ratio (95% CI) [1, 4]: 0.67; acute kidney injury, percentage of patients ([1]; human, in vivo): 2.2%; diabetic ketoacidosis, percentage of patients ([1]; human, in vivo): 0.6%; diarrhea, percentage of patients ([1]; human, in vivo): 8.5%; genital mycotic infections, percentage of patients ([1]; human, in vivo): 2.4%; percentage of patients in whom hypertension developed ([1]; human, in vivo): 2.6%; percentage of patients in whom hypotension developed ([1]; human, in vivo): 2.6%; percentage of patients with a serious adverse event ([1]; human, in vivo): 23.4%; volume depletion, percentage of patients ([1]; human, in vivo): 5.3%; Diarrhea, genital mycotic infections, volume depletion, and diabetic ketoacidosis, frequency compared with placebo ([1]; in vivo): more common; bone fractures, urinary tract infections, severe hypoglycemia, acute kidney injury, or amputations, compared with placebo ([1]; in vivo): no significant between-group differences; percentage of patients with adverse events that occurred or worsened during the treatment period or with events leading to withdrawal of the trial regimen, compared with placebo ([1]; in vivo): no significant differences; effect on the SCORED study's primary endpoint in the presence or absence of reported LVH or hypertension at baseline ([2]; FIG. 1, in words): consistent; Acute Kidney Injury, count ([2]; human, in vivo): 6; Acute Kidney Injury, figure in brackets ([2]; human, in vivo): 2.8; Any Malignancies of Special Interest, count ([2]; human, in vivo): 4; Any Malignancies of Special Interest, figure in brackets ([2]; human, in vivo): 1.8; Bone Fractures, count ([2]; human, in vivo): 7; Bone Fractures, figure in brackets ([2]; human, in vivo): 3.2; Diabetic Ketoacidosis, count ([2]; human, in vivo): 1; Diabetic Ketoacidosis, figure in brackets ([2]; human, in vivo): 0.5; Diarrhea, count ([2]; human, in vivo): 19; Diarrhea, figure in brackets ([2]; human, in vivo): 8.8; Genital Mycotic Infections, count ([2]; human, in vivo): 2; Genital Mycotic Infections, figure in brackets ([2]; human, in vivo): 0.9; Pancreatitis, count ([2]; human, in vivo): 1; Pancreatitis, figure in brackets ([2]; human, in vivo): 0.5; Severe Hypoglycemia, count ([2]; human, in vivo): 2; Severe Hypoglycemia, figure in brackets ([2]; human, in vivo): 0.9; Urinary Tract Infections, count ([2]; human, in vivo): 20; Urinary Tract Infections, figure in brackets ([2]; human, in vivo): 9.2; Venous Thrombotic Events, count ([2]; human, in vivo): 3; Venous Thrombotic Events, figure in brackets ([2]; human, in vivo): 1.4; Volume Depletion, count ([2]; human, in vivo): 10; Volume Depletion, figure in brackets ([2]; human, in vivo): 4.6; hazard ratio in patients with LVH without hypertension compared with the general population of patients at risk of cardiovascular events ([2]; in words): markedly lower; risk of CV events in patients with reported LVH and no reported hypertension ([2]; in words): significantly reduced; 3-point MACE + HHF, event rate [2, 5]: 5.5 Events per 100 patient-years; 3-point MACE, event rate [2, 5]: 3.1 Events per 100 patient-years; 3-point MACE + HHF: Hazard Ratio (95% CI) [2, 6]: 0.46 (0.21, 0.99); 3-point MACE: Hazard Ratio (95% CI) [2, 6]: 0.52 (0.21, 1.28)
